From ChEMBL document CHEMBL3734705, “Synthesis and in vitro cytotoxicity of novel C-12 substituted-14-deoxy-andrographolide derivatives as potent anti-cancer agents” (2015)
Activity calls are given as the source filed them. The calls are words filed in the database; no cut-off is given here.

Experiments:
SN12C [1] = test: Cytotoxicity against human SN12C cells assessed as growth level at 10 uM after 48 hrs by SRB assay; assay type: functional
[2] = Cytotoxicity against human HOP92 cells assessed as growth inhibition at 10 uM after 48 hrs by SRB assay; assay type: functional; details: HOP-92, 48 h, read-out: GI
[3] = Cytotoxicity against human HCT15 cells assessed as growth inhibition at 10 uM after 48 hrs by SRB assay; assay type: functional; details: HCT-15, 48 h, read-out: GI
[4] = Cytotoxicity against human SKOV3 cells assessed as growth level at 10 uM after 48 hrs by SRB assay; assay type: functional, SK-OV-3
[5] = Cytotoxicity against human TK10 cells assessed as growth level at 10 uM after 48 hrs by SRB assay; assay type: functional, TK-10
[6] = Cytotoxicity against human HCT15 cells assessed as growth level at 10 uM after 48 hrs by SRB assay; assay type: functional, HCT-15
CCRF-CEM [7] = test: Cytotoxicity against human CCRF-CEM cells assessed as growth level at 10 uM after 48 hrs by SRB assay; assay type: functional
[8] = Cytotoxicity against human SF539 cells assessed as growth inhibition at 10 uM after 48 hrs by SRB assay; assay type: functional; details: SF-539, 48 h, read-out: GI
[9] = Cytotoxicity against human NCI-ADR-RES cells assessed as growth inhibition at 10 uM after 48 hrs by SRB assay; assay type: functional; details: read-out: GI
[10] = Cytotoxicity against human UACC62 cells assessed as growth level at 10 uM after 48 hrs by SRB assay; assay type: functional, UACC-62
NCI-H322M [11] = test: Cytotoxicity against human NCI-H322M cells assessed as growth inhibition at 10 uM after 48 hrs by SRB assay; assay type: functional
CCRF-CEM [12] = test: Cytotoxicity against human CCRF-CEM cells assessed as growth inhibition at 10 uM after 48 hrs by SRB assay; assay type: functional; details: read-out: GI
NCI-H522 = test: Cytotoxicity against human NCI-H522 cells assessed as growth inhibition at 10 uM after 48 hrs by SRB assay; assay type: functional; details: NCI-H522, 48 h, read-out: GI
KM12 = test: Cytotoxicity against human KM12 cells assessed as growth level at 10 uM after 48 hrs by SRB assay; assay type: functional
EKVX = test: Cytotoxicity against human EKVX cells assessed as growth level at 10 uM after 48 hrs by SRB assay; assay type: functional
T47D = test: Cytotoxicity against human T47D cells assessed as growth level at 10 uM after 48 hrs by SRB assay; assay type: functional
[13] = Cytotoxicity against human HL-60(TB) cells assessed as growth level at 10 uM after 48 hrs by SRB assay; assay type: functional
NCI-H460 [14] = test: Cytotoxicity against human NCI-H460 cells assessed as growth inhibition at 10 uM after 48 hrs by SRB assay; assay type: functional; details: NCI-H460, 48 h, read-out: GI
[15] = Cytotoxicity against human MOLT4 cells assessed as growth level at 10 uM after 48 hrs by SRB assay; assay type: functional, MOLT-4
A498 = test: Cytotoxicity against human A498 cells assessed as growth inhibition at 10 uM after 48 hrs by SRB assay; assay type: functional; details: A498, 48 h, read-out: GI
[16] = Cytotoxicity against human SF539 cells assessed as growth level at 10 uM after 48 hrs by SRB assay; assay type: functional, SF-539
[17] = Cytotoxicity against human OVCAR5 cells assessed as growth level at 10 uM after 48 hrs by SRB assay; assay type: functional, OVCAR-5
SR = test: Cytotoxicity against human SR cells assessed as growth inhibition at 10 uM after 48 hrs by SRB assay; assay type: functional; details: read-out: GI
[18] = Cytotoxicity against human OVCAR8 cells assessed as growth inhibition at 10 uM after 48 hrs by SRB assay; assay type: functional; details: OVCAR-8, 48 h, read-out: GI
[19] = Cytotoxicity against human SNB75 cells assessed as growth inhibition at 10 uM after 48 hrs by SRB assay; assay type: functional; details: SNB-75, 48 h, read-out: GI
NCI-H322M [20] = test: Cytotoxicity against human NCI-H322M cells assessed as growth level at 10 uM after 48 hrs by SRB assay; assay type: functional
NCI-H460 [21] = test: Cytotoxicity against human NCI-H460 cells assessed as growth level at 10 uM after 48 hrs by SRB assay; assay type: functional
ACHN = test: Cytotoxicity against human ACHN cells assessed as growth inhibition at 10 uM after 48 hrs by SRB assay; assay type: functional; details: read-out: GI
NCI-H226 [22] = test: Cytotoxicity against human NCI-H226 cells assessed as growth inhibition at 10 uM after 48 hrs by SRB assay; assay type: functional; details: NCI-H226, 48 h, read-out: GI
SK-MEL-28 = test: Cytotoxicity against human SK-MEL-28 cells assessed as growth level at 10 uM after 48 hrs by SRB assay; assay type: functional
SN12C [23] = test: Cytotoxicity against human SN12C cells assessed as growth inhibition at 10 uM after 48 hrs by SRB assay; assay type: functional; details: read-out: GI
MDA-MB-231 = test: Cytotoxicity against human MDA-MB-231 cells assessed as growth level at 10 uM after 48 hrs by SRB assay; assay type: functional
[24] = Cytotoxicity against human UO31 cells assessed as growth level at 10 uM after 48 hrs by SRB assay; assay type: functional, UO-31
A549 = test: Cytotoxicity against human A549 cells assessed as growth level at 10 uM after 48 hrs by SRB assay; assay type: functional
MCF7 = test: Cytotoxicity against human MCF7 cells assessed as growth level at 10 uM after 48 hrs by SRB assay; assay type: functional
[25] = Cytotoxicity against human BT549 cells assessed as growth level at 10 uM after 48 hrs by SRB assay; assay type: functional, BT-549
[26] = Cytotoxicity against human RXF393 cells assessed as growth level at 10 uM after 48 hrs by SRB assay; assay type: functional, RXF 393
[27] = Cytotoxicity against human RPMI8226 cells assessed as growth inhibition at 10 uM after 48 hrs by SRB assay; assay type: functional; details: RPMI-8226, 48 h, read-out: GI
MDA-MB-468 [28] = test: Cytotoxicity against human MDA-MB-468 cells assessed as growth level at 10 uM after 48 hrs by SRB assay; assay type: functional
[29] = Cytotoxicity against human HOP62 cells assessed as growth inhibition at 10 uM after 48 hrs by SRB assay; assay type: functional; details: HOP-62, 48 h, read-out: GI
MDA-MB-468 [30] = test: Cytotoxicity against human MDA-MB-468 cells assessed as growth inhibition at 10 uM after 48 hrs by SRB assay; assay type: functional; details: MDA-MB-468, 48 h, read-out: GI
NCI-H226 [31] = test: Cytotoxicity against human NCI-H226 cells assessed as growth level at 10 uM after 48 hrs by SRB assay; assay type: functional
Malme-3M = test: Cytotoxicity against human MALME-3M cells assessed as growth level at 10 uM after 48 hrs by SRB assay; assay type: functional
[32] = Cytotoxicity against human UACC257 cells assessed as growth inhibition at 10 uM after 48 hrs by SRB assay; assay type: functional; details: UACC-257, 48 h, read-out: GI
[33] = Cytotoxicity against human IGROV1 cells assessed as growth inhibition at 10 uM after 48 hrs by SRB assay; assay type: functional; details: IGROV-1, 48 h, read-out: GI

Work on `C=C1CC[C@@H]2[C@](C)(COC(C)=O)[C@H](OC(C)=O)CC[C@@]2(C)[C@@H]1C/C=C1/C(=O)OC[C@H]1OC(C)=O` yielded an Activity (SN12C [1]) of 33.42%, an inhibition of growth at 10 µM [2] of 28.1% and an inhibition of growth at 10 µM [3] of 23%. The Activity [4] was 101.37%, the Activity [5] was 16.88% and the Activity [6] was -23.04%. For the same compound, the Activity (CCRF-CEM [7]) was -11.4%, the inhibition of growth at 10 µM [8] was 91.5% and the inhibition of growth at 10 µM [9] was 75%. For the same compound, the Activity [10] was 29.71%, the “growth inhibition (GI)” value (NCI-H322M [11]) was “inactive” and the inhibition of growth at 10 µM (CCRF-CEM [12]) was 11.4%. It also gave an inhibition of growth at 10 µM (NCI-H522) of 41.6%, an Activity (KM12) of 52.83% and an Activity (EKVX) of 102.98%. It also gave an Activity (T47D) of 42.77%, an Activity [13] of 79.11% and an inhibition of growth at 10 µM (NCI-H460 [14]) of 1.96%. It also gave an Activity [15] of -6.05%, an inhibition of growth at 10 µM (A498) of 9.43% and an Activity [16] of 8.54%. For the same compound, the Activity [17] was 53.7%, the inhibition of growth at 10 µM (SR) was 94.4% and the inhibition of growth at 10 µM [18] was 72.9%. The inhibition of growth at 10 µM [19] was 55.1%, the Activity (NCI-H322M [20]) was 101.35% and the Activity (NCI-H460 [21]) was 98.04%. For the same compound, the inhibition of growth at 10 µM (ACHN) was 80.5%, the inhibition of growth at 10 µM (NCI-H226 [22]) was 76.4% and the Activity (SK-MEL-28) was 37.78%. It also gave an inhibition of growth at 10 µM (SN12C [23]) of 66.6%, an Activity (MDA-MB-231) of 95.84% and an Activity [24] of 62.83%. It also gave an Activity (A549) of 85.77%, an Activity (MCF7) of 22.9% and an Activity [25] of 27.38%. It also gave an Activity [26] of -7.35%, an inhibition of growth at 10 µM [27] of 85.9% and an Activity (MDA-MB-468 [28]) of 7.98%. The inhibition of growth at 10 µM [29] was 24.2%, the inhibition of growth at 10 µM (MDA-MB-468 [30]) was 92% and the Activity (NCI-H226 [31]) was 23.61%. The Activity (Malme-3M) was 77.72% and the inhibition of growth at 10 µM [32] was 33.5%.

In the case of `C=C1CC[C@@H]2[C@](C)(COC(C)=O)[C@H](OC(C)=O)CC[C@@]2(C)[C@@H]1CC(NCCCCCCCC)C1=CCOC1=O` (mixture of isomers), the Activity (SN12C [1]) is reported as 73.09%, the inhibition of growth at 10 µM [2] is reported as 55.4% and the inhibition of growth at 10 µM [3] is reported as 33%. For the same compound, the Activity [4] was 77.13%, the Activity [5] was 82.68% and the Activity [6] was 66.95%. The Activity (CCRF-CEM [7]) was 47.26%, the inhibition of growth at 10 µM [8] was 10.8% and the inhibition of growth at 10 µM [9] was 12.3%. The Activity [10] was 47.66%, the inhibition of growth at 10 µM (NCI-H322M [11]; read-out: GI) was 1.99% and the inhibition of growth at 10 µM (CCRF-CEM [12]) was 52.7%. The inhibition of growth at 10 µM (NCI-H522) was 35.6%, the Activity (KM12) was 68.58% and the Activity (EKVX) was 75.77%. For the same compound, the Activity (T47D) was 57.98%, the Activity [13] was 58.93% and the inhibition of growth at 10 µM (NCI-H460 [14]) was 47.3%. For the same compound, the Activity [15] was 36.47%, the inhibition of growth at 10 µM (A498) was 35.7% and the Activity [16] was 89.25%. For the same compound, the inhibition of growth at 10 µM [33] was 29.8%, the Activity [17] was 93.23% and the inhibition of growth at 10 µM (SR) was 63%. The inhibition of growth at 10 µM [18] was 29%, the inhibition of growth at 10 µM [19] was 25.4% and the Activity (NCI-H322M [20]) was 98.01%. For the same compound, the Activity (NCI-H460 [21]) was 52.67%, the inhibition of growth at 10 µM (ACHN) was 14% and the inhibition of growth at 10 µM (NCI-H226 [22]) was 34.2%. It also gave an Activity (SK-MEL-28) of 85.58%, an inhibition of growth at 10 µM (SN12C [23]) of 26.9% and an Activity (MDA-MB-231) of 70.83%. It also gave an Activity [24] of 56.13%, an Activity (A549) of 67.24% and an Activity (MCF7) of 68.8%. It also gave an Activity [25] of 69.6%, an Activity [26] of 85.68% and an inhibition of growth at 10 µM [27] of 64%. It also gave an Activity (MDA-MB-468 [28]) of 32.04%, an inhibition of growth at 10 µM [29] of 8.03% and an inhibition of growth at 10 µM (MDA-MB-468 [30]) of 68%. It also gave an Activity (NCI-H226 [31]) of 65.82%, an Activity (Malme-3M) of 84.15% and an inhibition of growth at 10 µM [32] of 38.9%.
